Laboratory results taken from patent publication US12077503B2, “Substituted cyclic amides and their use as herbicides” (FMC CORPORATION, priority 2015, dated 2024).

Assays:
Type in all cases: in vivo
[1] = system: barnyardgrass (Echinochloa crus-galli); assay: Test G Pre-Emergence Protocol; details: Echinochloa crus-galli, pre-emergence, 312 h, evaluated after 13 days; for pest or weed control at 15.625 g/ha: 15.625 g ai/ha; for pest or weed control at 15.625 g/ha / pest or weed control at 250 g/ha: read-out: Barnyardgrass damage rating (100=total damage to plant; 0=no damage to plant); for pest or weed control at 62.5 g/ha: 62.5 g ai/ha, 100=total damage to plant, 0=no damage to plant, read-out: Barnyardgrass damage rating; for pest or weed control at 250 g/ha: 250 g ai/ha
Procedure, shortened: (§1)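 Spraying took place one day after sowing, at 15.625, 62.5 or 250 g/ha, using an acetone/water (50:50) spray solution containing 0.5% Tween 20. Plants were kept under glasshouse conditions (24/16 °C, 14 h light, 65% humidity, watered twice daily), and injury was rated 0–100 at day 13.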

[2] = system: redroot pigweed (Amaranthus retroflexus); assay: Test G Pre-Emergence Protocol; details: Amaranthus retroflexus, pre-emergence, 312 h, evaluated after 13 days; for pest or weed control at 15.625 g/ha: 15.625 g ai/ha; for pest or weed control at 15.625 g/ha / pest or weed control at 250 g/ha: read-out: Pigweed, Redroot damage rating (100=total damage to plant; 0=no damage to plant); for pest or weed control at 62.5 g/ha: 62.5 g ai/ha, 100=total damage to plant, 0=no damage to plant, read-out: Pigweed, Redroot damage rating; for pest or weed control at 250 g/ha: 250 g ai/ha
Procedure, shortened: as §1

corn (Zea mays) [3] = assay: Test G Pre-Emergence Protocol; details: Zea mays, pre-emergence, 312 h, evaluated after 13 days; for plant injury at 15.625 g/ha: 15.625 g ai/ha; for plant injury at 15.625 g/ha / plant injury at 250 g/ha: read-out: Corn damage rating (100=total damage to plant; 0=no damage to plant); for plant injury at 62.5 g/ha: 62.5 g ai/ha, 100=total damage to plant, 0=no damage to plant, read-out: Corn damage rating; for plant injury at 250 g/ha: 250 g ai/ha
Procedure, shortened: as §1

[4] = system: ivy-leaved morning glory (Ipomoea hederacea); assay: Test G Pre-Emergence Protocol; details: Ipomoea, pre-emergence, 312 h, evaluated after 13 days; for pest or weed control at 15.625 g/ha: 15.625 g ai/ha; for pest or weed control at 15.625 g/ha / pest or weed control at 250 g/ha: read-out: Morningglory, Ivy-leaved damage rating (100=total damage to plant; 0=no damage to plant); for pest or weed control at 62.5 g/ha: 62.5 g ai/ha, 100=total damage to plant, 0=no damage to plant, read-out: Morningglory, Ivy-leaved damage rating; for pest or weed control at 250 g/ha: 250 g ai/ha
Procedure, shortened: as §1

[5] = system: velvetleaf (Abutilon theophrasti); assay: Test G Pre-Emergence Protocol; details: Abutilon theophrasti, pre-emergence, 312 h, evaluated after 13 days; for pest or weed control at 15.625 g/ha: 15.625 g ai/ha; for pest or weed control at 15.625 g/ha / pest or weed control at 250 g/ha: read-out: Velvetleaf damage rating (100=total damage to plant; 0=no damage to plant); for pest or weed control at 62.5 g/ha: 62.5 g ai/ha, 100=total damage to plant, 0=no damage to plant, read-out: Velvetleaf damage rating; for pest or weed control at 250 g/ha: 250 g ai/ha
Procedure, shortened: as §1

[6] = system: giant foxtail (Setaria faberi); assay: Test G Pre-Emergence Protocol; details: Setaria faberi, pre-emergence, 312 h, evaluated after 13 days; for pest or weed control at 15.625 g/ha: 15.625 g ai/ha; for pest or weed control at 15.625 g/ha / pest or weed control at 250 g/ha: read-out: Foxtail, Giant damage rating (100=total damage to plant; 0=no damage to plant); for pest or weed control at 62.5 g/ha: 62.5 g ai/ha, 100=total damage to plant, 0=no damage to plant, read-out: Foxtail, Giant damage rating; for pest or weed control at 250 g/ha: 250 g ai/ha
Procedure, shortened: as §1

[7] = system: barnyardgrass (Echinochloa crus-galli); assay: Test G Post-Emergence Protocol; details: Echinochloa crus-galli, post-emergence, 312 h, read-out: Barnyardgrass damage rating; for pest or weed control at 15.625 g/ha: 15.625 g ai/ha, evaluated after 13 days (100=total damage to plant; 0=no damage to plant); for pest or weed control at 62.5 g/ha: 62.5 g ai/ha; for pest or weed control at 62.5 g/ha / pest or weed control at 250 g/ha: evaluated after 13 days, 100=total damage to plant, 0=no damage to plant; for pest or weed control at 250 g/ha: 250 g ai/ha
Procedure, shortened: (§2)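 A glasshouse post-emergence test: 8-day-old plants sprayed at 15.625, 62.5 or 250 g/ha, then grown at 24/16 °C day/night with 14 h light and 65% humidity. Damage rated 13 days later, 0–100.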

[8] = system: redroot pigweed (Amaranthus retroflexus); assay: Test G Post-Emergence Protocol; details: Amaranthus retroflexus, post-emergence, 312 h, read-out: Pigweed, Redroot damage rating; for pest or weed control at 15.625 g/ha: 15.625 g ai/ha, evaluated after 13 days (100=total damage to plant; 0=no damage to plant); for pest or weed control at 62.5 g/ha: 62.5 g ai/ha; for pest or weed control at 62.5 g/ha / pest or weed control at 250 g/ha: evaluated after 13 days, 100=total damage to plant, 0=no damage to plant; for pest or weed control at 250 g/ha: 250 g ai/ha
Procedure, shortened: as §2

corn (Zea mays) [9] = assay: Test G Post-Emergence Protocol; details: Zea mays, post-emergence, 312 h, read-out: Corn damage rating; for plant injury at 15.625 g/ha: 15.625 g ai/ha, evaluated after 13 days (100=total damage to plant; 0=no damage to plant); for plant injury at 62.5 g/ha: 62.5 g ai/ha; for plant injury at 62.5 g/ha / plant injury at 250 g/ha: evaluated after 13 days, 100=total damage to plant, 0=no damage to plant; for plant injury at 250 g/ha: 250 g ai/ha
Procedure, shortened: as §2

[10] = system: ivy-leaved morning glory (Ipomoea hederacea); assay: Test G Post-Emergence Protocol; details: Ipomoea, post-emergence, 312 h, read-out: Morningglory, Ivy-leaved damage rating; for pest or weed control at 15.625 g/ha: 15.625 g ai/ha, evaluated after 13 days (100=total damage to plant; 0=no damage to plant); for pest or weed control at 62.5 g/ha: 62.5 g ai/ha; for pest or weed control at 62.5 g/ha / pest or weed control at 250 g/ha: evaluated after 13 days, 100=total damage to plant, 0=no damage to plant; for pest or weed control at 250 g/ha: 250 g ai/ha
Procedure, shortened: as §2

[11] = system: velvetleaf (Abutilon theophrasti); assay: Test G Post-Emergence Protocol; details: Abutilon theophrasti, post-emergence, 312 h, read-out: Velvetleaf damage rating; for pest or weed control at 15.625 g/ha: 15.625 g ai/ha, evaluated after 13 days (100=total damage to plant; 0=no damage to plant); for pest or weed control at 62.5 g/ha: 62.5 g ai/ha; for pest or weed control at 62.5 g/ha / pest or weed control at 250 g/ha: evaluated after 13 days, 100=total damage to plant, 0=no damage to plant; for pest or weed control at 250 g/ha: 250 g ai/ha
Procedure, shortened: as §2

[12] = system: giant foxtail (Setaria faberi); assay: Test G Post-Emergence Protocol; details: Setaria faberi, post-emergence, 312 h, read-out: Foxtail, Giant damage rating; for pest or weed control at 15.625 g/ha: 15.625 g ai/ha, evaluated after 13 days (100=total damage to plant; 0=no damage to plant); for pest or weed control at 62.5 g/ha: 62.5 g ai/ha; for pest or weed control at 62.5 g/ha / pest or weed control at 250 g/ha: evaluated after 13 days, 100=total damage to plant, 0=no damage to plant; for pest or weed control at 250 g/ha: 250 g ai/ha
Procedure, shortened: as §2

Compound	pest or weed control at 15.625 g/ha [1] [%]	pest or weed control at 62.5 g/ha [1] [%]	pest or weed control at 250 g/ha [1] [%]	pest or weed control at 15.625 g/ha [2] [%]	pest or weed control at 62.5 g/ha [2] [%]	pest or weed control at 250 g/ha [2] [%]	plant injury at 15.625 g/ha (corn (Zea mays) [3]) [%]	plant injury at 62.5 g/ha (corn (Zea mays) [3]) [%]	plant injury at 250 g/ha (corn (Zea mays) [3]) [%]	pest or weed control at 15.625 g/ha [4] [%]	pest or weed control at 62.5 g/ha [4] [%]	pest or weed control at 250 g/ha [4] [%]	pest or weed control at 15.625 g/ha [5] [%]	pest or weed control at 62.5 g/ha [5] [%]	pest or weed control at 250 g/ha [5] [%]	pest or weed control at 15.625 g/ha [6] [%]	pest or weed control at 62.5 g/ha [6] [%]	pest or weed control at 250 g/ha [6] [%]	pest or weed control at 15.625 g/ha [7] [%]	pest or weed control at 62.5 g/ha [7] [%]	other results
COc1cc(C2CN(C)C(=O)C2C(=O)Nc2cccc(F)c2F)cc(C(F)(F)F)c1F (stereo not drawn) [Compound 1701]	0	30	70	0	0	10	0	0	30	0	20	20	0	0	0	40	80	90	10	60	pest or weed control at 250 g/ha [7]: 70%; pest or weed control at 15.625 g/ha [8]: 0%; pest or weed control at 62.5 g/ha [8]: 0%; pest or weed control at 250 g/ha [8]: 30%; plant injury at 15.625 g/ha (corn (Zea mays) [9]): 10%; plant injury at 62.5 g/ha (corn (Zea mays) [9]): 30%; plant injury at 250 g/ha (corn (Zea mays) [9]): 50%; pest or weed control at 15.625 g/ha [10]: 0%; pest or weed control at 62.5 g/ha [10]: 0%; pest or weed control at 250 g/ha [10]: 30%; pest or weed control at 15.625 g/ha [11]: 0%; pest or weed control at 62.5 g/ha [11]: 0%; pest or weed control at 250 g/ha [11]: 0%; pest or weed control at 15.625 g/ha [12]: 40%; pest or weed control at 62.5 g/ha [12]: 60%; pest or weed control at 250 g/ha [12]: 60%
Cc1cc(C2CN(C)C(=O)C2C(=O)Nc2cccc(F)c2F)cc(Cl)c1F (stereo not drawn) [Compound 1708]	20	30	60	0	0	0	0	0	0	0	0	20	0	0	0	60	80	90	40	50	pest or weed control at 250 g/ha [7]: 80%; pest or weed control at 15.625 g/ha [8]: 0%; pest or weed control at 62.5 g/ha [8]: 0%; pest or weed control at 250 g/ha [8]: 0%; plant injury at 15.625 g/ha (corn (Zea mays) [9]): 10%; plant injury at 62.5 g/ha (corn (Zea mays) [9]): 30%; plant injury at 250 g/ha (corn (Zea mays) [9]): 70%; pest or weed control at 15.625 g/ha [10]: 20%; pest or weed control at 62.5 g/ha [10]: 20%; pest or weed control at 250 g/ha [10]: 20%; pest or weed control at 15.625 g/ha [11]: 0%; pest or weed control at 62.5 g/ha [11]: 0%; pest or weed control at 250 g/ha [11]: 0%; pest or weed control at 15.625 g/ha [12]: 40%; pest or weed control at 62.5 g/ha [12]: 60%; pest or weed control at 250 g/ha [12]: 60%
